Experiments:
[1] = test system: T cell avatar A_4_2 (Jurkat expressing TCR from human islet-infiltrating CD4+ T cell, Donor A); test: T cell avatar NanoLuciferase response to synthetic peptide; type: cell-based; conditions: highest concentration tested 20 μM
From the text: Briefly, we used CRISPR/Cas9 to generate a variant of the human T cell line Jurkat that was deficient in TRAC, TRBC, and CD4. […] This parental Jurkat line was then transduced with the TRAV and TRBV constructs that express the TRAV and TRBV genes that form the TCR expressed by human islet-infiltrating CD4^+ T cells. […] Transduced cells expressing CD3 and TCR were purified by flow cytometry or magnetic bead enrichment. Briefly, cells were resuspended in viral supernatant at 1–2 × 10^6/ml with 5 μg/ml polybrene. Cells were centrifuged at 1,200 rpm (300 g) for 60 min at room temperature, then diluted 1:1 in fresh medium and incubated overnight at 37 °C, 5% CO2. […] Compensation settings were determined using single-color controls. […]
The HIP super-pool bacteria were cultured from frozen glycerol stock in LB media with antibiotics at 37 °C with agitation 210 rpm. […] After 22–24 h of coculture, the NanoLuciferase activity was measured using the Nano-Glo Luciferase assay (Promega) according to the manufacturer's instructions. Luminescence was measured on a plate reader (Enspire Perkin Elmer). Responses are reported as the Δluciferase, which is calculated by subtracting the average background (no antigen) luciferase reading measured in the negative control cultures from the response measured in the other treatments. […]

T cell avatar A_4_7 [2] = test: as above; type: cell-based, human; conditions: highest concentration tested 20 μM
From the text: (§1) Briefly, we used CRISPR/Cas9 to generate a variant of the human T cell line Jurkat that was deficient in TRAC, TRBC, and CD4. […] This parental Jurkat line was then transduced with the TRAV and TRBV constructs that express the TRAV and TRBV genes that form the TCR expressed by human islet-infiltrating CD4^+ T cells. […] Transduced cells expressing CD3 and TCR were purified by flow cytometry or magnetic bead enrichment. Briefly, cells were resuspended in viral supernatant at 1–2 × 10^6/ml with 5 μg/ml polybrene. Cells were centrifuged at 1,200 rpm (300 g) for 60 min at room temperature, then diluted 1:1 in fresh medium and incubated overnight at 37 °C, 5% CO2. Flow cytometry was performed on a Becton Dickinson LSR Fortessa to determine the proportion of CD3 and TCR expressing cells. The following antihuman mAbs were used for FACS staining: CD3-PE (UCHT1, BD Biosciences), and anti-TCRαβ-AF647 (IP26, BioLegend). Cells were stained with the appropriate mAb in phosphate buffered saline (PBS) 0.1% foetal bovine serum (FBS) for 20 min on ice, then washed twice. Dead cells were excluded by propidium iodide staining. Compensation settings were determined using single-color controls. TCR and CD3 expressing cells were purified by FACS or using REALease CD3 Microbead Kit (Miltenyi) following the manufacturer's instructions. All Jurkat T cell avatars used were >85% CD3^+/TCR^+.
(§2) The HIP super-pool bacteria were cultured from frozen glycerol stock in LB media with antibiotics at 37 °C with agitation 210 rpm. The overnight HIP-expressing bacteria cultures were diluted to an OD600 of 0.06 and grown in 48-well plates in 200 μl LB medium with antibiotics until an OD600 of 0.5 was reached. […] After 22–24 h of coculture, the NanoLuciferase activity was measured using the Nano-Glo Luciferase assay (Promega) according to the manufacturer's instructions. Luminescence was measured on a plate reader (Enspire Perkin Elmer). Responses are reported as the Δluciferase, which is calculated by subtracting the average background (no antigen) luciferase reading measured in the negative control cultures from the response measured in the other treatments.
(§3) Peptides (Genscript) were dissolved in dimethyl sulfoxide (DMSO) to 5.0 mM, aliquoted and stored at −80 °C. The CD4^+ T cell avatars' responses to peptides were measured as described above; except synthetic peptides were used as antigens, instead of E. coli and the antigen/EBV cells were not cultured overnight before the T cell avatars were added. A T cell's response to antigen was measured as luciferase activity using the Nano-Glo Luciferase assay system (Promega) according to the manufacturer's instructions (as above). The HLA-restriction of the HIP-specific CD4^+ T cell clones was determined in a two-step process as described previously ([10]). […]

T cell avatar A_4_8 [3] = test: as above; type: cell-based, human; conditions: highest concentration tested 20 μM
From the text: as §1, §2, §3

[4] = test system: HIP-specific T cell avatars; test: T cell avatar NanoLuciferase response, panel of HIP-specific avatars; type: cell-based, human; conditions: nine HIP-specific avatars; highest concentration 20 μM; weak left-hand response in 3 of 9 avatars; very weak C-peptide response in three cases
Experimental: as §2, with “reached. Protein expression was induced by adding isopropyl β-D-thiogalactopyranoside (2.0 mM, Sigma). Incubation was continued for another 4 h at 37 °C in a shaking incubator.” for “reached.”
Peptides (Genscript) were dissolved in dimethyl sulfoxide (DMSO) to 5.0 mM, aliquoted and stored at −80 °C. The CD4^+ T cell avatars' responses to peptides were measured as described above; except synthetic peptides were used as antigens, instead of E. coli and the antigen/EBV cells were not cultured overnight before the T cell avatars were added. […] The T cell avatar's responses were measured as above. […]

T cell avatar A_4_5 = conditions: previous characterisation, clone A4.5 (A_4_5); ref [15, 34]; cited from earlier work
From the text: (§4) Supplement pgae491_supplementary_data.docx, table 6: Supplementary Table 6. Summary of previous characterisation of human islet-infiltrating CD4^+ T cells. | column: HLA-restriction

T cell avatar A_4_6 = conditions: previous characterisation, clone A3.10 (A_4_6); ref [15, 34]; cited from earlier work
From the text: as §4

T cell avatar K_4_161 = test: T cell avatar NanoLuciferase response to synthetic peptide; type: cell-based, human
From the text: as §1, §2, §3

[5] = test system: T cell avatar A_4_2 (Jurkat expressing TCR from human islet-infiltrating CD4+ T cell, Donor A); conditions: previous characterisation, clone A1.9 (A_4_2); ref [5, 34]; cited from earlier work
From the text: as §4

T cell avatar A_4_7 [6] = conditions: previous characterisation, clone A5.5 (A_4_7); ref [5]; cited from earlier work
From the text: as §4

T cell avatar A_4_8 [7] = conditions: previous characterisation, clone A5.8 (A_4_8); ref [5]; cited from earlier work
From the text: as §4

## EAEDLQVGQVELGGGPGAGSLQPLALEGSLQ [C-peptide, full-length proinsulin C-peptide]
[1]
  response to full-length C-peptide (Δluciferase): very weak
T cell avatar A_4_7 [2]
  response to full-length C-peptide (Δluciferase): very weak
T cell avatar A_4_8 [3]
  response to full-length C-peptide (Δluciferase): very weak
[4]
  T cell avatar response (Δluciferase) to native peptide: did not respond

## GQVELGGG-NAVEVLK [HIP-6, previously reported C-peptide-IAPP2 HIP]
T cell avatar A_4_5
  HLA-restriction: HLA-DQ8
T cell avatar A_4_6
  HLA-restriction: HLA-DQ8

## REAEDLQVG-VCGERGF [HIP-K, hybrid insulin peptide formed by fusion of proinsulin fragments]
T cell avatar K_4_161; blocking mAbs and single-HLA APC lines, peptide 1.0 μM
  HLA restriction: DQ8
T cell avatar K_4_161; synthetic peptide titration, autologous EBV B cells, NanoLuciferase, triplicate
  EC50: > 20 µM

## VELGGGPGA
[5]
  HLA-restriction: HLA-DQ8
T cell avatar A_4_7 [6]
  HLA-restriction: HLA-DQ8
T cell avatar A_4_8 [7]
  HLA-restriction: HLA-DQ8
